Laboratory results as given in patent US20150359220A1, “COMPOSITIONS COMPRISING GOUGEROTIN AND A FUNGICIDE” (BAYER CROPSCIENCE LP, priority 2013, published 2015).
Where a name gives a salt, the structure may show the parent alone. Read-outs that look alike come from different tables or passages of the source.

Columns and labels:
Venturia inaequalis = assay: Venturia test (apples)/preventive; details: for Efficacy in % found: 10 days after inoculation
Experimental: After the spray coating has dried on, the plants are inoculated with an aqueous conidia suspension of the causal agent of apple scab (Venturia inaequalis) and then remain for 1 day in an incubation cabinet at approximately 20° C. and a relative atmospheric humidity of 100%. The plants are then placed in a greenhouse at approximately 21° C. and a relative atmospheric humidity of approximately 90%.
The test is evaluated 10 days after the inoculation.

Sphaerotheca fuliginea = assay: Sphaerotheca test (cucumbers)/preventive; type: in vivo
Phytophthora infestans = assay: whole plant or invertebrate; type: in vivo; details: for Efficacy in % found: 3 days after inoculation
Alternaria solani = assay: Alternaria test (tomatoes)/preventive; type: in vivo; details: 3 days after inoculation
[1] = system: Blumeria graminis fsp. hordei; assay: Blumeria test (barley)/preventive; type: in vivo; details: 7 days after inoculation
Septoria tritici = assay: Septoria tritici-test (wheat)/preventive; type: in vivo; details: 21 days after inoculation
Puccinia triticina = assay: Puccinia triticina-test (wheat)/preventive; type: in vivo; details: 8 days after inoculation
Pyrenophora teres = assay: Pyrenophora teres-test (barley)/preventive; type: in vivo; details: 8 days after inoculation
Botrytis cinerea = assay: Botrytis test (beans)/preventive; details: Table 7, size of lesions 2 days after inoculation
Experimental: After the spray coating has dried on, 2 small pieces of agar covered with growth of Botrytis cinerea are placed on each leaf. The inoculated plants are placed in a darkened chamber at 20° C. and a relative atmospheric humidity of 100%.
2 days after the inoculation, the size of the lesions on the leaves is evaluated.

[2] = system: parasites on animals, such as pin worm; details: according to U.S. Pat. No. 3,849,398; cited from earlier work
[3] = system: gram-positive, gram-negative bacteria and tubercule bacillus; details: according to U.S. Pat. No. 3,849,398; cited from earlier work
[4] = Venturia inaequalis, 240 h, read-out: Efficacy in % found
[5] = Phytophthora infestans, topical, 72 h, read-out: Efficacy in % found
[6] = Table 18, 0.5 ppm a.i., 7 days after inoculation
[7] = Table 18, 100 ppm a.i., 7 days after inoculation
[8] = Podosphaera fuliginea, 168 h, Table 20, 100 ppm a.i., 7 days after inoculation, read-out: Efficacy in % found
[9] = Alternaria solani, topical, 72 h, Table 4, 50 ppm a.i., read-out: Efficacy in % found
[10] = Table 19, 20 ppm a.i., 7 days after inoculation
[11] = Alternaria solani, topical, 72 h, Table 2, 2 ppm a.i., read-out: Efficacy in % found
[12] = Podosphaera fuliginea, 168 h, Table 19, 1 ppm a.i., 7 days after inoculation, read-out: Efficacy in % found

CCCOC(=O)NCCCN(C)C [F220, propamocarb hydrochloride]
pest or weed control at 250 ppm (Venturia inaequalis; [4]): 0%
pest or weed control at 500 ppm (Sphaerotheca fuliginea; Podosphaera fuliginea, 168 h, Table 20, 500 ppm a.i., 7 days after inoculation, read-out: Efficacy in % found): 10%
pest or weed control at 500 ppm (Phytophthora infestans; [5]): 7%
pest or weed control at 250 ppm (Alternaria solani; Alternaria solani, topical, 72 h, Table 4, 250 ppm a.i., read-out: Efficacy in % found): 12%

Cn1c(=O)c2sc3c(=O)n(C)c(=O)c3sc2c1=O [F319, 2,6-dimethyl-1H,5H-[1,4]dithiino[2,3-c:5,6-c′]dipyrrole-1,3,5,7(2H,6H)-tetrone]
Efficacy in % found (Venturia inaequalis; Table 23, 25 ppm a.i.): 38%
Efficacy in % found (Sphaerotheca fuliginea; Table 19, 50 ppm a.i., 7 days after inoculation): 0%
Efficacy in % found (Phytophthora infestans; Table 11, 50 ppm a.i.): 5%
Efficacy in % found (Alternaria solani; Table 2, 50 ppm a.i.): 5%

CSC1=N[C@@](C)(c2ccccc2)C(=O)N1Nc1ccccc1 [F114, fenamidone]
pest or weed control at 50 ppm (Venturia inaequalis; [4]): 0%
pest or weed control at 100 ppm (Sphaerotheca fuliginea; Podosphaera fuliginea, 168 h, Table 18, 100 ppm a.i., 7 days after inoculation, read-out: Efficacy in % found): 21%
pest or weed control at 1 ppm (Phytophthora infestans; [5]): 41%
pest or weed control at 50 ppm (Alternaria solani; Alternaria solani, topical, 72 h, Table 3, 50 ppm a.i., read-out: Efficacy in % found): 62%

CON=C(C(=O)OC)c1ccccc1CON=C(C)c1cccc(C(F)(F)F)c1 [F126, trifloxystrobin]
Efficacy in % found (Venturia inaequalis; Table 22, 0.5 ppm a.i.): 53%
Efficacy in % found (Sphaerotheca fuliginea; [6]): 0%
Efficacy in % found ([1]; Table 5, 15.625 ppm a.i.): 50%
Efficacy in % found ([1]; Table 5, 31.25 ppm a.i.): 60%
Efficacy in % found (Septoria tritici; Table 16, 15.625 ppm a.i.): 50%
Efficacy in % found (Septoria tritici; Table 16, 31.25 ppm a.i.): 75%
Efficacy in % found (Alternaria solani; Table 3, 2 ppm a.i.): 47%

CO/C=C(/C(=O)OC)c1ccccc1Oc1cc(Oc2ccccc2C#N)ncn1 [F107, azoxystrobin]
Efficacy in % found (Venturia inaequalis; Table 22, 0.5 ppm a.i.): 84%
Efficacy in % found (Puccinia triticina; Table 12, 7.8125 ppm a.i.): 67%
Efficacy in % found (Sphaerotheca fuliginea; [6]): 37%
Efficacy in % found ([1]; Table 5, 31.25 ppm a.i.): 10%
Efficacy in % found (Septoria tritici; Table 16, 15.625 ppm a.i.): 13%
Efficacy in % found (Septoria tritici; Table 16, 31.25 ppm a.i.): 50%
Efficacy in % found (Alternaria solani; Table 3, 2 ppm a.i.): 41%
Efficacy in % found (Pyrenophora teres; Table 15, 15.625 ppm a.i.): 60%
Efficacy in % found (Pyrenophora teres; Table 15, 31.25 ppm a.i.): 90%

O=C(NCCc1ncc(C(F)(F)F)cc1Cl)c1ccccc1C(F)(F)F [F70, fluopyram]
Efficacy in % found (Venturia inaequalis; Table 21, 1 ppm a.i.): 0%
Efficacy in % found (Sphaerotheca fuliginea; Table 19, 1 ppm a.i., 7 days after inoculation): 0%
Efficacy in % found ([1]; Table 5, 31.25 ppm a.i.): 0%
Efficacy in % found ([1]; Table 5, 62.5 ppm a.i.): 0%
Efficacy in % found (Septoria tritici; Table 16, 62.5 ppm a.i.): 0%
Efficacy in % found (Alternaria solani; Table 2, 2 ppm a.i.): 40%
Efficacy in % found (Pyrenophora teres; Table 15, 31.25 ppm a.i.): 60%
Efficacy in % found (Pyrenophora teres; Table 15, 62.5 ppm a.i.): 80%

C#CCOc1ccc(CCNC(=O)C(OCC#C)c2ccc(Cl)cc2)cc1OC (stereo not shown) [F206, mandipropamid]
Efficacy in % found (Sphaerotheca fuliginea; [7]): 13%
Efficacy in % found (Phytophthora infestans; Table 10, 0.25 ppm a.i.): 47%

COCC(=O)N(c1c(C)cccc1C)[C@H](C)C(=O)OC [F242, metalaxyl-M]
Efficacy in % found (Venturia inaequalis; Table 22, 50 ppm a.i.): 0%
Efficacy in % found (Sphaerotheca fuliginea; [7]): 13%

CCCN(CC)CC1COC2(CCC(C(C)(C)C)CC2)O1 (stereo not shown) [F46, spiroxamine]
pest or weed control at 50 ppm (Venturia inaequalis; [4]): 0%
pest or weed control at 100 ppm (Sphaerotheca fuliginea; [8]): 30%
Efficacy in % found ([1]; Table 6, 125 ppm a.i.): 11%
pest or weed control at 50 ppm (Alternaria solani; [9]): 46%
Efficacy in % found (Botrytis cinerea; 100 ppm a.i.): 14%

mancozeb [F174]
Efficacy in % found (Venturia inaequalis; Table 23, 10 ppm a.i.): 0%
Efficacy in % found (Sphaerotheca fuliginea; [10]): 0%
Efficacy in % found (Phytophthora infestans; Table 11, 20 ppm a.i.): 0%

CC(C)Oc1cccc(NC(=O)c2ccccc2C(F)(F)F)c1 [F71, flutolanil]
pest or weed control at 50 ppm (Venturia inaequalis; [4]): 0%
pest or weed control at 100 ppm (Sphaerotheca fuliginea; [8]): 20%
Efficacy in % found (Botrytis cinerea; 250 ppm a.i.): 30%

CC(C)(C)C(O)(CCc1ccc(Cl)cc1)Cn1cncn1 (stereo not shown) [F47, tebuconazole]
pest or weed control at 1 ppm (Venturia inaequalis; [4]): 0%
Efficacy in % found (Puccinia triticina; Table 13, 31.25 ppm a.i.): 30%
Efficacy in % found (Puccinia triticina; Table 13, 62.5 ppm a.i.): 60%
pest or weed control at 100 ppm (Phytophthora infestans; [5]): 15%
Efficacy in % found ([1]; Table 6, 31.25 ppm a.i.): 78%
Efficacy in % found (Septoria tritici; Table 17, 125 ppm a.i.): 57%
pest or weed control at 2 ppm (Alternaria solani; [11]): 35%

Cn1cc(C(=O)Nc2ccccc2-c2cc(F)c(F)c(F)c2)c(C(F)F)n1 [F72, fluxapyroxad]
Efficacy in % found (Venturia inaequalis; Table 21, 0.25 ppm a.i.): 0%
Efficacy in % found (Puccinia triticina; Table 12, 15.625 ppm a.i.): 22%
Efficacy in % found (Puccinia triticina; Table 12, 31.25 ppm a.i.): 22%
Efficacy in % found (Phytophthora infestans; Table 9, 100 ppm a.i.): 0%
Efficacy in % found ([1]; Table 5, 31.25 ppm a.i.): 0%
Efficacy in % found (Septoria tritici; Table 16, 31.25 ppm a.i.): 13%
Efficacy in % found (Alternaria solani; Table 2, 0.5 ppm a.i.): 45%
Efficacy in % found (Pyrenophora teres; Table 15, 15.625 ppm a.i.): 80%
Efficacy in % found (Pyrenophora teres; Table 15, 31.25 ppm a.i.): 90%

CC1COC(Cn2cncn2)(c2ccc(Oc3ccc(Cl)cc3)cc2Cl)O1 (stereo not shown) [F7, difenoconazole]
pest or weed control at 1 ppm (Venturia inaequalis; [4]): 38%
Efficacy in % found (Puccinia triticina; Table 13, 31.25 ppm a.i.): 30%
Efficacy in % found (Puccinia triticina; Table 13, 62.5 ppm a.i.): 60%
pest or weed control at 1 ppm (Sphaerotheca fuliginea; [12]): 0%
pest or weed control at 100 ppm (Phytophthora infestans; [5]): 0%
Efficacy in % found ([1]; Table 6, 62.5 ppm a.i.): 44%
Efficacy in % found ([1]; Table 6, 125 ppm a.i.): 67%
pest or weed control at 2 ppm (Alternaria solani; [11]): 30%

Cc1nn(C)c(F)c1C(=O)Nc1ccccc1C(C)CC(C)C (stereo not shown) [F84, penflufen]
Efficacy in % found (Venturia inaequalis; Table 21, 0.5 ppm a.i.): 0%
Efficacy in % found (Puccinia triticina; Table 12, 31.25 ppm a.i.): 67%
Efficacy in % found (Sphaerotheca fuliginea; Table 19, 0.5 ppm a.i., 7 days after inoculation): 0%
Efficacy in % found (Phytophthora infestans; Table 9, 100 ppm a.i.): 8%
Efficacy in % found (Pyrenophora teres; Table 15, 62.5 ppm a.i.): 70%
Efficacy in % found (Pyrenophora teres; Table 15, 125 ppm a.i.): 60%

COCC(=O)N(c1c(C)cccc1C)C(C)C(=O)OC (stereo not shown) [F241, metalaxyl]
Efficacy in % found (Venturia inaequalis; Table 22, 50 ppm a.i.): 0%

COC(=O)N(OC)c1ccccc1COc1ccn(-c2ccc(Cl)cc2)n1 [F121, pyraclostrobin]
Efficacy in % found (Venturia inaequalis; Table 22, 0.5 ppm a.i.): 0%
Efficacy in % found (Sphaerotheca fuliginea; [6]): 0%
Efficacy in % found (Septoria tritici; Table 16, 31.25 ppm a.i.): 75%
Efficacy in % found (Alternaria solani; Table 3, 2 ppm a.i.): 41%
Efficacy in % found (Pyrenophora teres; Table 15, 31.25 ppm a.i.): 80%

phosphorous acid and its salts [F298]
Efficacy in % found (Venturia inaequalis; Table 22, 50 ppm a.i.): 0%
Efficacy in % found (Phytophthora infestans; Table 10, 500 ppm a.i.): 76%

propineb [F180]
Efficacy in % found (Venturia inaequalis; Table 23, 10 ppm a.i.): 81%
Efficacy in % found (Sphaerotheca fuliginea; [10]): 0%
Efficacy in % found (Phytophthora infestans; Table 11, 20 ppm a.i.): 8%

fosetyl-aluminium [F281]
Efficacy in % found (Venturia inaequalis; Table 22, 50 ppm a.i.): 0%
Efficacy in % found (Sphaerotheca fuliginea; [7]): 13%
Efficacy in % found (Phytophthora infestans; Table 10, 50 ppm a.i.): 55%
Efficacy in % found (Alternaria solani; Table 3, 50 ppm a.i.): 15%

N#Cc1c[nH]cc1-c1cccc2c1OC(F)(F)O2 [F248, fludioxonil]
pest or weed control at 50 ppm (Venturia inaequalis; [4]): 0%
pest or weed control at 100 ppm (Sphaerotheca fuliginea; Podosphaera fuliginea, 168 h, read-out: Efficacy in % found): 30%
Efficacy in % found (Botrytis cinerea; 2.5 ppm a.i.): 26%

CC1(C(=O)Nc2ccc(O)c(Cl)c2Cl)CCCCC1 [F16, fenhexamid]
pest or weed control at 25 ppm (Venturia inaequalis; [4]): 0%
pest or weed control at 100 ppm (Sphaerotheca fuliginea; [8]): 0%
pest or weed control at 100 ppm (Phytophthora infestans; [5]): 0%
pest or weed control at 50 ppm (Alternaria solani; [9]): 50%

N#Cc1c(Cl)c(Cl)c(Cl)c(C#N)c1Cl [F155, chlorothalonil]
pest or weed control at 10 ppm (Venturia inaequalis; [4]): 4%
pest or weed control at 20 ppm (Phytophthora infestans; [5]): 0%
Efficacy in % found (Septoria tritici; Table 17, 125 ppm a.i.): 57%
Efficacy in % found (Pyrenophora teres; Table 14, 250 ppm a.i.): 50%

CNCC(=O)NC(CO)C(=O)NC1C(C(N)=O)OC(n2ccc(N)nc2=O)C(O)C1O [gougerotin, 1-(4-Amino-2-oxo-1(2H)-pyrimidinyl)-1,4-dideoxy-4-[[N—(N-methylglycyl)-D-seryl]amino]-b-D-glucopyranuronamide]
parasiticidal action [2]: parasiticidal action
antibacterial activity [3]: weak antibacterial activity

N#Cc1ccccc1NC(=O)c1snc(Cl)c1Cl [F187, isotianil]
Efficacy in % found (Venturia inaequalis; Table 21, 50 ppm a.i.): 0%
Efficacy in % found (Sphaerotheca fuliginea; Table 20, 100 ppm a.i., 7 days after inoculation): 20%
Efficacy in % found (Septoria tritici; Table 17, 250 ppm a.i.): 29%
Efficacy in % found (Septoria tritici; Table 17, 500 ppm a.i.): 29%
Efficacy in % found (Alternaria solani; Table 4, 50 ppm a.i.): 18%
Efficacy in % found (Botrytis cinerea; 125 ppm a.i.): 40%

O=C(NCc1ncc(C(F)(F)F)cc1Cl)c1c(Cl)cccc1Cl [F143, fluopicolide]
Efficacy in % found (Venturia inaequalis; Table 22, 50 ppm a.i.): 0%
Efficacy in % found (Phytophthora infestans; Table 10, 5 ppm a.i.): 21%

OC(Cc1ccccc1Cl)(Cn1nc[nH]c1=S)C1(Cl)CC1 (stereo not shown) [F41, prothioconazole]
pest or weed control at 1 ppm (Venturia inaequalis; [4]): 0%
pest or weed control at 1 ppm (Sphaerotheca fuliginea; [12]): 43%
pest or weed control at 100 ppm (Phytophthora infestans; [5]): 45%
pest or weed control at 2 ppm (Alternaria solani; [11]): 0%
